Here are results for 9 compounds from patent US8076297B2, “Pharmaceutical composition containing polypeptide fragments of serralysins” (Centro De Ingenieria Genetica Y Biotecnologia, priority 2004, dated 2011).

For the first assay, the system named is HEp-2 cells. As to the kind of experiment: Anti-proliferative assay on HEp-2 cells, MTT method. In kind it is cell-based, human. The settings on record: 3 μg/mL. Here is the method: For the characterization of the antiproliferative activity of MG2327 “in vitro” a panel of human cell lines was evaluated (table 1). A total of 2000 cells, except for PBMC (20000), were seeded in 96 wells culture wells, and different concentrations of MG2327 were added. After 72 hours, the number of survival cells was estimated by addition of MTT (Skehan, P., Storeng, R., Scudiero, D., Monks, A., Mcmahon, J., Vistica, D., Warren, J. T., Bokesch, H., Kenney, S. and BOYD, M. R. 1990. J Natl Cancer Inst. 82:1107). The soluble formazan products were detected at 540 nm in a multiscan plate reader.
A general note: Formazan colour is commonly taken as a measure of viable cells.
Turning to `N.N.[Cl][Pt][Cl]` [Cisplatin, reference compound], the proliferation was 40%.

As for `COc1cccc2c1C(=O)c1c(O)c3c(c(O)c1C2=O)C[C@@](O)(C(=O)CO)C[C@@H]3O[C@H]1C[C@H](N)[C@H](O)[C@H](C)O1` [DXR, Doxorubicine, reference compound], the proliferation is 40%.

`CC[C@]1(O)C[C@@H]2CN(CCc3c([nH]c4ccccc34)[C@@](C(=O)OC)(c3cc4c(cc3OC)N(C)[C@H]3[C@@](O)(C(=O)OC)[C@H](OC(C)=O)[C@]5(CC)C=CCN6CC[C@]43[C@@H]65)C2)C1` [Vinvlastine, reference compound] returned a proliferation of 40%.

As to `CC(=O)O[C@H]1C(=O)[C@@]2(C)[C@H]([C@H](OC(=O)c3ccccc3)[C@]3(O)C[C@H](OC(=O)[C@H](O)[C@@H](NC(=O)c4ccccc4)c4ccccc4)C(C)=C1C3(C)C)[C@]1(OC(C)=O)CO[C@@H]1C[C@@H]2O` [Taxol, reference compound], the proliferation was 40%.

Take `CC[C@]1(O)C[C@H]2CN(CCc3c([nH]c4ccccc34)[C@@](C(=O)OC)(c3cc4c(cc3OC)N(C=O)[C@H]3[C@@](O)(C(=O)OC)[C@H](OC(C)=O)[C@]5(CC)C=CCN6CC[C@]43[C@@H]65)C2)C1` [Vincristine, reference compound]: the proliferation is given as 40%.

Still in this assay, the particulars now being: same conditions as 3 μg/mL comparison.
For the compound `O=P1(N(CCCl)CCCl)NCCCO1` (stereo not drawn) [Ciclophosfamide, reference compound], the effect on proliferation entry is reported as “do not showed effect”.

For the compound `Nc1ccn([C@@H]2O[C@H](CO)[C@@H](O)[C@@H]2O)c(=O)n1` [Ara C, reference compound], the effect on proliferation entry is “do not showed effect”.

As for Bleomicine [reference compound], the effect on proliferation entry was “do not showed effect”.

Turning to `CN(Cc1cnc2nc(N)nc(N)c2n1)c1ccc(C(=O)N[C@@H](CCC(=O)O)C(=O)O)cc1` [Metotrexate, reference compound], the effect on proliferation result is reported as “do not showed effect”.
